Test results: PubChem BioAssay AID1996
Converted amounts (≈) assume the structure as drawn.

Conditions: buffer; pH 7.4; 200.0 µM

Compound	solubility kinetic [µg/mL]
c1ccc2c(c1)OCCc1c-2[nH]c2ccccc12	3 (≈ 12.8 µM)
C#Cc1ccc(CN2CCN(Cc3ccsc3)C(CCO)C2)cc1 (stereo not given)	36.3 (≈ 107 µM)
O=C(CNC(=O)c1ccccc1)OCC(=O)c1c[nH]c2ccccc12	18.6 (≈ 55.3 µM)
CSCCC(=O)N1CCCC(CO)(CCCc2ccccc2)C1 (stereo not given)	31.7 (≈ 94.5 µM)
CCCCN(Cc1ccccc1)C1CCN(Cc2ccccc2)CC1	27.3 (≈ 81.1 µM)
O=C(CCCc1cccs1)NCCc1c[nH]c2ccccc12	44.9 (≈ 144 µM)
Cc1onc(NC(=O)CSCC(=O)O)c1Br	> 46.4
CCc1sc(C(=O)Nc2ccc3nc(C)sc3c2)cc1C	1.6 (≈ 5.06 µM)
C#CC(C)(C)NC(=O)c1ccc(-c2ccccc2F)cc1	< 0.6
O=C(O)CC1(CC(=O)NCc2ccc(-c3cccs3)cc2)CCCCC1	43.3 (≈ 117 µM)
Fc1c(F)c(F)c(NC2=NCCCCC2)c(F)c1F	> 41.7
O=C(Cc1ncon1)Nc1ccc(F)c(F)c1F	38.1 (≈ 148 µM)
Cc1nc(Nc2ccccc2)sc1C(=O)c1ccccc1	2.1 (≈ 7.13 µM)
Cc1ccc2oc(Nc3nc(C)c(C)c(C)n3)nc2c1	2.4 (≈ 8.94 µM)
c1nc2ccc(Cc3ccc4nc[nH]c4c3)cc2[nH]1	34.3 (≈ 138 µM)
CCOC(=O)c1csc(NC(=O)c2cc(-c3ccccn3)nc3ccccc23)n1	1 (≈ 2.47 µM)
Cc1nc(SC(C)C(=O)NCc2ccc3c(c2)OCO3)nc(C)c1C (stereo not given)	> 53.9
Cc1ccc(N2C(=O)CC(=O)NC2=O)cc1Cl	> 37.9
O=C(CSc1ccccc1)Nc1ccc2c(c1)OCO2	41.8 (≈ 145 µM)
O=C(CSc1nc2ccccc2c(=O)n1-c1ccccc1)N1CCC1	> 52.7
O=c1c2c3c(sc2nc2n1CCC2)CCCC3	33.8 (≈ 137 µM)
CCOC(=O)c1csc(NC(=O)CN2CCN(C)CC2)n1	> 46.9
O=C(O)CSc1ncnc2sc(-c3ccccc3)cc12	> 45.4
O=C1C2C3C=CC(C2C(=O)N1CCO)C1C(=O)N(CCO)C(=O)C31 (stereo not given)	> 50.1

Results, then the compound that gave them:

solubility kinetic [µg/mL]	Compound
> 55.7	CCCN(C(=O)CSc1ccccc1C(=O)O)C1CCS(=O)(=O)C1 (stereo not given)
53.8 (≈ 143 µM)	CCOP(=O)(OCC)C(NC(=O)c1ccc(OC)cc1)c1ccccc1 (stereo not given)
2.9 (≈ 10.1 µM)	O=C1CSC(=S)N1c1cccc(Br)c1
39.9 (≈ 148 µM)	CC1(C)CC(=O)C2=C(C1)NC(=O)NC2c1ccccc1 (stereo not given)
23.8 (≈ 79.2 µM)	Cc1cc(C(=O)NCC(=O)Nc2c(C)cccc2C)c(C)o1
< 0.5	CC(Oc1ccc(Br)cc1Br)C(=O)Nc1cccnc1Cl (stereo not given)
> 45.7	CCC1CCCCN1C(=O)CSc1nc2ncccc2[nH]1 (stereo not given)
52.1 (≈ 147 µM)	O=C(O)C1CCCN(S(=O)(=O)c2ccc(Br)s2)C1 (stereo not given)
> 43.7	Cc1cnc(C(=O)OCC(=O)N2C(C)CCCC2C)cn1 (stereo not given)
> 45.2	CCC(=O)Nc1ccc2nc3c(=O)[nH]c(=S)[nH]c3nc2c1
> 58.1	COc1cccc(CN(C)C(=O)CCN=C2NS(=O)(=O)c3ccccc32)c1
11 (≈ 25.3 µM)	CC(=O)c1c(C)[nH]c(C(=O)COC(=O)CCNS(=O)(=O)c2ccc(C)c(C)c2)c1C
> 42.3	CNCc1ccccc1OCc1ccccc1F.Cl
15.2 (≈ 50.6 µM)	CCOc1ccc(Nc2ccc([N+](=O)[O-])c3nonc23)cc1
> 47	COc1ccc(CC(=O)NCCCc2ccccc2)cc1OC
12.5 (≈ 36.2 µM)	Cc1ccc(CN(C)c2ccc(S(=O)(=O)N3CCCC3)cn2)cc1
2 (≈ 5.86 µM)	COc1ccc(Cc2noc(-c3ccc([N+](=O)[O-])cc3)n2)cc1OC
> 45.9	COc1ccc(S(=O)(=O)NC2CC2)cc1Br

solubility kinetic [µg/mL]	Compound
> 46.6	Cc1[nH]c2ccccc2c1C(=O)C(=O)NCCCn1ccnc1
30.8 (≈ 130 µM)	CSc1ccc(NC(=O)/C=C/C(=O)O)cc1
18.6 (≈ 67.7 µM)	CCN(C(=O)Nc1cccc(Cl)c1)c1ccccc1
< 0.3	S=c1nc(-c2ccccc2)[nH]c2ccc(Br)cc12
> 55.6	Cc1ccc(CNC(=O)COC(=O)CN2C(=O)C3CC=CCC3C2=O)cc1 (stereo not given)
> 42.2	CC(Oc1ccccc1)C(=O)N1CCc2ccccc2C1 (stereo not given)
> 46.1	CN(CC(=O)Nc1cccc(F)c1)CC(=O)N1CCCCC1
> 38.1	CC1CCc2ccccc2N1C(=N)N(C)C.Cl (stereo not given)
4.4 (≈ 14.3 µM)	Cc1ccc(NC(=O)CN2C(=O)c3ccccc3C2=O)c(C)c1
> 37.4	Cc1ccsc1C(=O)NCc1ccc(F)cc1
36.9 (≈ 124 µM)	O=S(=O)(NCc1ccccn1)c1ccc2ccccc2c1
> 50.5	NC(=O)C1CCN(C(=O)c2ccccc2CCc2ccccc2)CC1
> 46.9	CCCn1c(SCC(=O)NC2CCC(C)CC2)n[nH]c1=O (stereo not given)
0.7 (≈ 2.32 µM)	COC(=O)c1sc(-c2ccccc2)cc1NC(=O)C1CC1
2.5 (≈ 7.39 µM)	COc1cccc(CC(=O)Nc2ccc(-c3csc(C)n3)cc2)c1
> 40.4	Cn1cccc1C1C(C#N)=C(N)OC2=C1C(=O)CCC2 (stereo not given)
38.2 (≈ 130 µM)	Cc1c(Cl)cccc1NC(=O)CNC(=O)c1ccco1
> 31.7	Nc1ccc(C(=O)[O-])c(O)c1.O.[Na+]
